# Reference: US7662404B2, “Transdermal delivery system for dried particulate or lyophilized peptides and polypeptides” (TransPharma Medical Ltd., priority 2002, dated 2010)
# Read-outs that look alike come from different tables or passages of the source.
# Key:
# [1] = test system: plasma calcium ions and phosphorous; test: Plasma calcium ions and phosphorus in women after hPTH (1-34) (Example 13); assay type: in vivo, human; details: four women, all transdermal and SC treatments
# Procedure: Each female adult received five treatments of hPTH (1-34) with a minimum of 2 day clearance between treatments. The treatments were as follows: • 1. Three ViaDerm applications (final density of 300 micro-channels/cm^2) on one site of the upper arm. Two printed patches, each containing 100 μg hPTH (1-34), were placed over the application area (each for 6 hours). • 2. Two ViaDerm applications (final density of 150 micro-channels/cm^2) on one site of the upper arm. Two printed patches, each containing 200 μg hPTH (1-34), were placed over the application area. • 3. Three ViaDerm applications (final density of 300 micro-channels/cm^2) on one site of the upper arm. Two printed patches, each containing 200 μg hPTH (1-34), were placed over the application area. • 4. Subcutaneous (SC) injection of 20 μg hPTH (1-34) (FORTEO®, Teriparatide was purchased from Ely Lilly, Indianapolis, Ind., USA). • 5. SC injection of 60 μg hPTH (1-34) (FORTEO®).
# Plasma hPTH (1-34), calcium ions and phosphate ions were determined by Eliza using commercial kits.
# [2] = Plasma hPTH (1-34) in pigs as a function of patch application time (Example 14); assay type: in vivo; details: male, large white, pig; for Cmax: read-out: Cmax AVG ± SD; for F rel: topical or ocular, compared to SC, read-out: % BIO AVG ± SD
# Procedure: A printed patch containing 90 μg of hPTH (1-34) was placed over the application area and covered with Tegaderm. The patch was removed 1 hour, 1.5 hours, 2 hours or 8 hours after application, and the skin site was gently wiped to remove residual peptide. As a control group, pigs were injected s.c. with 0.2 ml FORTEO® (hPTH (1-34) purchased from Ely Lilly, Indianapolis, Ind., USA; 250 μg/ml) diluted to 100 μg/ml in the dorsal neck area (final dose was 20 μg per animal). Formulation: hPTH (1-34) (10 mg/ml): Trehalose (110 mg/ml) in 50 mM acetic acid, pH=4.
# To determine the amount of hPTH(1-34) delivered to the blood of the treated pigs, blood samples were withdrawn at the indicated time points and the amount of hPTH(1-34) was measured by an ELISA kit (Immutopics, San-Clemente, Calif.).
compound,measurement,setting,value
CC[C@H](C)[C@H](NC(=O)[C@H](CCC(=O)O)NC(=O)[C@H](CO)NC(=O)[C@@H](NC(=O)[C@@H](N)CO)C(C)C)C(=O)N[C@@H](CCC(N)=O)C(=O)N[C@@H](CC(C)C)C(=O)N[C@@H](CCSC)C(=O)N[C@@H](Cc1cnc[nH]1)C(=O)N[C@@H](CC(N)=O)C(=O)N[C@@H](CC(C)C)C(=O)NCC(=O)N[C@@H](CCCCN)C(=O)N[C@@H](Cc1cnc[nH]1)C(=O)N[C@@H](CC(C)C)C(=O)N[C@@H](CC(N)=O)C(=O)N[C@@H](CO)C(=O)N[C@@H](CCSC)C(=O)N[C@@H](CCC(=O)O)C(=O)N[C@@H](CCCN=C(N)N)C(=O)N[C@H](C(=O)N[C@@H](CCC(=O)O)C(=O)N[C@@H](Cc1c[nH]c2ccccc12)C(=O)N[C@@H](CC(C)C)C(=O)N[C@@H](CCCN=C(N)N)C(=O)N[C@@H](CCCCN)C(=O)N[C@@H](CCCCN)C(=O)N[C@@H](CC(C)C)C(=O)N[C@@H](CCC(N)=O)C(=O)N[C@@H](CC(=O)O)C(=O)N[C@H](C(=O)N[C@@H](Cc1cnc[nH]1)C(=O)N[C@@H](CC(N)=O)C(=O)N[C@@H](Cc1ccccc1)C(=O)O)C(C)C)C(C)C [hPTH (1-34)],plasma concentrations of calcium ions,[1],elevation of calcium ions
same,plasma concentrations of phosphorus,[1],decrease of phosphorous
same,Cmax,"[2]; 90 ug, TD 90 ug printed patch, removed after 1 h",0.0772 ± 0.0358 ng/mL
same,Cmax,"[2]; 90 ug, TD 90 ug printed patch, removed after 1.5 h",0.179 ± 0.0658 ng/mL
same,Cmax,"[2]; 90 ug, TD 90 ug printed patch, removed after 2 h",0.137 ± 0.0431 ng/mL
same,Cmax,"[2]; 90 ug, TD 90 ug printed patch, removed after 8 h",0.128 ± 0.0524 ng/mL
same,AUC,"[2]; 90 ug, TD 90 ug, 1 h",0.232 ± 0.0418 ng·h/mL
same,AUC,"[2]; 90 ug, TD 90 ug, 1.5 h",0.296 ± 0.0716 ng·h/mL
same,AUC,"[2]; 90 ug, TD 90 ug, 2 h",0.272 ± 0.0545 ng·h/mL
same,AUC,"[2]; 90 ug, TD 90 ug, 8 h",0.331 ng·h/mL
same,AUC,"[2]; sc, 20 ug, SC 20 ug",0.237 ± 0.0273 ng·h/mL
same,Cmax,"[2]; sc, 20 ug, SC 20 ug",0.289 ± 0.0525 ng/mL
same,F rel,"[2]; 90 ug, TD 90 ug, 1 h",22.4 ± 6.97%
same,F rel,"[2]; 90 ug, TD 90 ug, 1.5 h",28.5 ± 9.36%
same,F rel,"[2]; 90 ug, TD 90 ug, 2 h",26.2 ± 8.42%
same,F rel,"[2]; 90 ug, TD 90 ug, 8 h",31.6 ± 9.03%
